Earlier results in patent US20110042247A1 (priority 2009, published 2011).
Read-outs that look alike come from different tables or passages of the source.

Structure (SMILES)	Solubility (5% Tween 80 in water)	Solubility (5% dextrose in water)	Solubility (N-methylpyrrolidone)	Solubility (acetone)	Solubility (dimethylsulphoxide (DMSO))	Solubility (ethanol)	Solubility (ethanol and water (50:50))	Solubility (methyl ethyl ketone)	Solubility (normal saline)	Solubility (polyethylene glycol)	Solubility (propylene glycol)	Solubility (water)	Solubility (water saturated octanol)	Solubility (methanol)	Solubility (methanol/water (50/50))
Nc1ncn([C@@H]2O[C@H](CO)[C@@H](O)[C@H]2O)c(=O)n1 [Azacitidine, 4-amino-1-β-D-ribofuranosyl-1,3,5-triazin-2(1H)-one]	sparingly soluble	sparingly soluble	sparingly soluble	insoluble	soluble	insoluble	slightly soluble	insoluble	sparingly soluble	slightly soluble	slightly soluble	sparingly soluble	sparingly soluble		
Nc1ncn([C@H]2C[C@H](O)[C@@H](CO)O2)c(=O)n1 [Decitabine, 4-amino-1-(2-deoxy-β-D-erythro-pentofuranosyl)-1,3,5-triazin-2(1H)-one]					soluble		slightly soluble					sparingly soluble		slightly soluble	slightly soluble
